Our source for the EC50 values is patent publication US7632933B2, “Corticotropin releasing factor 2 receptor agonists” (priority 2002, dated 2009).

One test addresses T1, CRF2R (Homo sapiens, UniProt Q13324).
T1 sequence (Q13324 1-411): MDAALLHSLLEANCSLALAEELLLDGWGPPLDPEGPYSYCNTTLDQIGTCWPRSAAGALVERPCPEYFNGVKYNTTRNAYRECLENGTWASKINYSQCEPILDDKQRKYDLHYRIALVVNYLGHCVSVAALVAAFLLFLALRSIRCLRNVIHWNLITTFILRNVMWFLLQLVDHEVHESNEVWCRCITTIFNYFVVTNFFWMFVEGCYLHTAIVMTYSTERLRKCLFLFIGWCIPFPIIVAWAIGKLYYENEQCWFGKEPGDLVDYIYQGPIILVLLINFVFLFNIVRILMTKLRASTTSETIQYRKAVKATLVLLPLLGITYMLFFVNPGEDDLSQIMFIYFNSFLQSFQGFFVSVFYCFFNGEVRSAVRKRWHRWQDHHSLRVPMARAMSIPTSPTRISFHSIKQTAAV
In words: CRF2R agonist activity (EC50 and Emax), called comparative CRF binding. It counts as cell-based. From the text:
(§1) The pharmacological activity and selectivity of the peptides of present invention can be determined using published test procedures. See, e.g, U.S. patent application Ser. No. 09/799,978. Because CRF2R and CRF1R are homologous proteins, it is expected that a certain proportion of agonists for CRF2R will also function as agonists of CRF1R. As discussed above, activation of CRF1R induces activation of the HPA axis since increased corticosteroid production leads to skeletal muscle atrophy. In most cases in which an increase in muscle mass or function is desired, it is not desirable to activate the HPA axis.
(§2) Because it is desirable to discriminate binding between CRF2R, as compared with CRF1R, the assays described above may be conducted using a cell, or membrane from a cell, which expresses only CRF2R or the assays can be conducted with a recombinant source of CRF2R. Cells expressing both forms of CRFR may be modified using homologous recombination to inactivate or otherwise disable the CRF1R gene. Alternatively, if the source of CRFR contains more than one CRFR type, the background signal produced by the receptor which is not of interest must be subtracted from the signal obtained in the assay. […] Known antagonists of CRFRs include, but are not limited to, antalarmin (CRF1R selective), antisauvagine-30 (CRF2R selective) and astressin (nonselective for CRF1R/CRF2R).
(§3) Cell-based assays include the steps of contacting cells which express CRF1R or CRF2R with a peptide of the present invention or control and measuring activation of the CRFR by measuring the expression or activity of components of the CRFR signal transduction pathways.
(§4) For example, after contact with a peptide of the present invention, lysates of the cells can be prepared and assayed for induction of cAMP. cAMP is induced in response to Gαs activation. Because Gαs is activated by receptors other than CRFR and because a test peptide may be exerting its effect through CRFRs or by another mechanism, two control comparisons are relevant for determining whether the peptide increases levels of cAMP via activation of a CRFR. One control compares the cAMP level of cells contacted with the peptide and the cAMP level of cells contacted with a control compound (i.e., the vehicle in which the peptide is dissolved).
(§5) In one example, cAMP induction is measured with the use of DNA constructs containing the cAMP responsive element linked to any of a variety of reporter genes can be introduced into cells expressing CRFRs. Such reporter genes include, but are not limited to, chloramphenicol acetyltransferase (CAT), luciferase, glucuronide synthetase, growth hormone, fluorescent proteins (e.g., Green Fluorescent Protein), or alkaline phosphatase. Following exposure of the cells to the peptide, the level of reporter gene expression can be quantitated to determine the peptide's ability to increase cAMP levels and thus determine the peptide's ability to activate the CRFR.
(§6) In addition to using cells expressing full length CRFRs, cells can be engineered which express CRFRs containing the ligand binding domain of the receptor coupled to, or physically modified to contain, reporter elements or to interact with signaling proteins. For example, a wild type CRFR or CRFR fragment can be fused to a G-protein resulting in activation of the fused G-protein upon agonist binding to the CRFR portion of the fusion protein. […] In addition, alternative pathways for induction of the CRE reporter could be eliminated to reduce basal levels.

The target in another test is T2, CRF1R (Homo sapiens, UniProt P34998).
T2 sequence (P34998 24-415): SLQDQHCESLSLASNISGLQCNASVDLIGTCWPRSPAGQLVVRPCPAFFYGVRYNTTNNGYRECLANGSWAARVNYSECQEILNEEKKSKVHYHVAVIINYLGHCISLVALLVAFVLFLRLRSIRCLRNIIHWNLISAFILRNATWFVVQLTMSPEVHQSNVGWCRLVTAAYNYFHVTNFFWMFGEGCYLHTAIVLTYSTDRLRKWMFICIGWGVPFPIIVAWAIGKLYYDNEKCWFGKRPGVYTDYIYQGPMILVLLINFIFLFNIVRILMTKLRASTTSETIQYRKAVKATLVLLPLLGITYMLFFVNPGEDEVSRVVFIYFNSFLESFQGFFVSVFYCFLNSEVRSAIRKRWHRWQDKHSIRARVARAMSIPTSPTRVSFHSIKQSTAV
In words: CRF1R agonist activity (EC50 and Emax), called comparative CRF binding. It counts as cell-based.
Source text: as §1, §2, §3, §4, §5, §6

Where two headings read alike, the source gives them in different places. Ends that are not written are not given here. Peptide text beside a SMILES is read from it.

As for “SEEPPISLDLTFHLLREVLEMARAEQLAQQAHTNARILARV-NH2 [compound 161]”, the EC50 – broadly, the concentration that produces a half-maximal response – is greater than 0.1 µM at CRF2R (CRF2R, read-out: CRF2R EC50) and greater than 0.1 µM at CRF1R (CRF1R, read-out: CRF1R EC50).
Turning to `CC[C@H](C)[C@H](NC(=O)[C@H](CCC(N)=O)NC(=O)[C@H](C)NC(=O)[C@H](CCSC)NC(=O)[C@H](CC(C)C)NC(=O)[C@H](Cc1c[nH]cn1)NC(=O)[C@H](C)NC(=O)[C@H](CC(N)=O)NC(=O)[C@H](C)NC(=O)[C@H](C)NC(=O)[C@H](C)NC(=O)[C@H](CCC(N)=O)NC(=O)[C@H](C)NC(=O)[C@H](CCCNC(=N)N)NC(=O)[C@H](CC(C)C)NC(=O)[C@H](CC(N)=O)NC(=O)[C@H](CCCCN)NC(=O)[C@H](C)NC(=O)[C@H](CCCCN)NC(=O)[C@H](C)NC(=O)[C@@H](NC(=O)[C@H](CC(N)=O)NC(=O)[C@H](Cc1ccccc1)NC(=O)[C@H](CC(C)C)NC(=O)[C@H](CC(C)C)NC(=O)[C@H](CC(N)=O)NC(=O)[C@H](CCSC)NC(=O)[C@@H](NC(=O)[C@H](CC(N)=O)NC(=O)[C@@H](NC(=O)[C@@H]1CCCN1C(=O)[C@@H](NC(=O)[C@H](CC(=O)O)NC(=O)[C@H](CC(C)C)NC(=O)[C@H](CO)NC(=O)[C@H](CC(C)C)NC(=O)[C@@H](NC(=O)[C@H](Cc1ccccc1)NC(=O)[C@H](CCCCN)NC(=O)[C@@H](N)[C@@H](C)O)[C@@H](C)O)C(C)C)[C@@H](C)O)[C@@H](C)CC)[C@@H](C)CC)C(N)=O` [hUroIII, reference compound] (H-TKFTLSLDVPTNIMNLLFNIAKAKNLRAQAAANAHLMAQI-NH2), the EC50 at CRF2R (CRF2R EC50) is greater than 0.1 µM; on CRF1R (CRF1R EC50), greater than 1 µM.
Take `CC[C@H](C)[C@H](N)C(=O)N[C@H](C(=O)N[C@@H](CC(C)C)C(=O)N[C@@H](CO)C(=O)N[C@@H](CC(C)C)C(=O)N[C@@H](CC(=O)O)C(=O)N[C@H](C(=O)N1CCC[C@H]1C(=O)N[C@H](C(=O)NCC(=O)N[C@@H](CC(C)C)C(=O)N[C@@H](CC(C)C)C(=O)N[C@@H](CCC(N)=O)C(=O)N[C@H](C(=O)N[C@@H](CC(C)C)C(=O)N[C@@H](CC(C)C)C(=O)N[C@@H](CCC(=O)O)C(=O)N[C@@H](CCC(N)=O)C(=O)N[C@@H](C)C(=O)N[C@@H](CCCNC(=N)N)C(=O)N[C@@H](Cc1c[nH]cn1)C(=O)N[C@@H](C)C(=O)N[C@@H](Cc1c[nH]cn1)C(=O)N[C@@H](C)C(=O)N[C@@H](Cc1c[nH]cn1)C(=O)N[C@@H](C)C(=O)N[C@@H](Cc1c[nH]cn1)C(=O)N[C@@H](C)C(=O)N[C@@H](Cc1c[nH]cn1)C(=O)N[C@@H](C)C(=O)N[C@@H](CCC(N)=O)C(=O)N[C@@H](C)C(=O)N[C@@H](Cc1c[nH]cn1)C(=O)N[C@H](C(=O)N[C@@H](CC(C)C)C(=O)N[C@@H](C)C(=O)N[C@@H](Cc1c[nH]cn1)C(=O)N[C@H](C(N)=O)C(C)C)[C@@H](C)CC)[C@@H](C)CC)[C@@H](C)CC)C(C)C)C(C)C` [compound 369] (H-IVLSLDVPIGLLQILLEQARHAHAHAHAHAQAHILAHV-NH2): the EC50 is no less than 0.1 µM on CRF2R (CRF2R, read-out: CRF2R EC50) and no less than 1 µM on CRF1R (CRF1R, read-out: CRF1R EC50).
On the same counts, the results for “NDDPPISIDLPLLLLRNMIEMARIENEREQAGLNAKYLAEV-NH2 [compound 268]” are no less than 0.1 µM and no less than 1 µM.
Take `CC[C@H](C)[C@H](N)C(=O)N[C@H](C(=O)N[C@@H](CC(C)C)C(=O)N[C@@H](CO)C(=O)N[C@@H](CC(C)C)C(=O)N[C@@H](CC(=O)O)C(=O)N[C@H](C(=O)N1CCC[C@H]1C(=O)N[C@H](C(=O)NCC(=O)N[C@@H](CC(C)C)C(=O)N[C@@H](CC(C)C)C(=O)N[C@@H](CCC(N)=O)C(=O)N[C@H](C(=O)N[C@@H](CC(C)C)C(=O)N[C@@H](CC(C)C)C(=O)N[C@@H](CCC(=O)O)C(=O)N[C@@H](CCC(N)=O)C(=O)N[C@H](C(=O)N[C@@H](CCCCN)C(=O)N[C@@H](C)C(=O)N[C@@H](CCCNC(=N)N)C(=O)N[C@@H](C)C(=O)N[C@@H](C)C(=O)N[C@@H](CCCNC(=N)N)C(=O)N[C@@H](CCC(=O)O)C(=O)N[C@@H](CCC(N)=O)C(=O)N[C@@H](C)C(=O)N[C@H](C(=O)N[C@H](C(=O)N[C@@H](CC(N)=O)C(=O)N[C@@H](C)C(=O)N[C@@H](CCCNC(=N)N)C(=O)N[C@H](C(=O)N[C@@H](CC(C)C)C(=O)N[C@@H](C)C(=O)N[C@@H](CCCNC(=N)N)C(=O)N[C@H](C(N)=O)C(C)C)[C@@H](C)CC)[C@@H](C)O)[C@@H](C)O)[C@@H](C)O)[C@@H](C)CC)[C@@H](C)CC)C(C)C)C(C)C` [compound 117] (H-IVLSLDVPIGLLQILLEQTKARAAREQATTNARILARV-NH2; N-terminus assumed): the EC50 at CRF2R (CRF2R, read-out: CRF2R EC50) turned out to be 0.00941 µM.
For “SQEPPISLDLPLELLREVLEMTKADQLAQQAHSNRKLLDIA-NH2 [compound 89]”, at CRF2R (CRF2R, read-out: CRF2R EC50), the EC50 is no less than 0.1 µM.
Still for that read-out and setting: the value for `CC[C@H](C)[C@H](N)C(=O)N[C@H](C(=O)N[C@@H](CC(C)C)C(=O)N[C@@H](CO)C(=O)N[C@@H](CC(C)C)C(=O)N[C@@H](CC(=O)O)C(=O)N[C@H](C(=O)N1CCC[C@H]1C(=O)N[C@H](C(=O)NCC(=O)N[C@@H](CC(C)C)C(=O)N[C@@H](CC(C)C)C(=O)N[C@@H](CCC(N)=O)C(=O)N[C@H](C(=O)N[C@@H](CC(C)C)C(=O)N[C@@H](CC(C)C)C(=O)N[C@@H](CCC(=O)O)C(=O)N[C@@H](CCC(N)=O)C(=O)N[C@@H](C)C(=O)N[C@@H](CCCCN)C(=O)N[C@@H](C)C(=O)N[C@@H](CCCNC(=N)N)C(=O)N[C@@H](C)C(=O)N[C@@H](C)C(=O)N[C@@H](CCCNC(=N)N)C(=O)N[C@@H](CCC(=O)O)C(=O)N[C@@H](CCC(N)=O)C(=O)N[C@@H](C)C(=O)N[C@H](C(=O)N[C@H](C(=O)N[C@@H](CC(N)=O)C(=O)N[C@@H](C)C(=O)N[C@@H](CCCNC(=N)N)C(=O)N[C@H](C(=O)N[C@@H](CC(C)C)C(=O)N[C@@H](C)C(=O)N[C@@H](CCCNC(=N)N)C(=O)N[C@H](C(N)=O)C(C)C)[C@@H](C)CC)[C@@H](C)O)[C@@H](C)O)[C@@H](C)CC)[C@@H](C)CC)C(C)C)C(C)C` [compound 109] (H-IVLSLDVPIGLLQILLEQAKARAAREQATTNARILARV-NH2; N-terminus assumed) was 0.0118 µM.
